From ChEMBL document CHEMBL1127715, “Perhydrothiopyranopyrroles derivatives : A novel series of potent and selective nonpeptide NK1 antagonists” (Bioorg Med Chem Lett, 1994) come the findings set out here.

The IC50 is the midpoint of a concentration-inhibition curve. Low readings indicate inhibition by little substance, high ones a need for much substance. As a reminder, the ED50 is the midpoint of the dose-response relation.

For test [1], the species on record is Cavia porcellus. Briefly: Compound was evaluated for antagonism of the contractile effect in guinea pig ileum preparation. Type of test: functional.
Test [2] is filed under the species Mus musculus. Briefly: Compound was evaluated for inhibiting PBQ induced writhing in mice perorally. It is filed as functional. For orientation: In writhing tests, fewer writhes than in controls are read as antinociception.
For test [3], the target named is Substance-P receptor (Cavia porcellus, UniProt P30547). As to the kind of experiment: Compound was evaluated for its affinity to guinea pig Tachykinin receptor 1.
Sequence of Substance-P receptor (Cavia porcellus, UniProt P30547) (P30547 whole entry): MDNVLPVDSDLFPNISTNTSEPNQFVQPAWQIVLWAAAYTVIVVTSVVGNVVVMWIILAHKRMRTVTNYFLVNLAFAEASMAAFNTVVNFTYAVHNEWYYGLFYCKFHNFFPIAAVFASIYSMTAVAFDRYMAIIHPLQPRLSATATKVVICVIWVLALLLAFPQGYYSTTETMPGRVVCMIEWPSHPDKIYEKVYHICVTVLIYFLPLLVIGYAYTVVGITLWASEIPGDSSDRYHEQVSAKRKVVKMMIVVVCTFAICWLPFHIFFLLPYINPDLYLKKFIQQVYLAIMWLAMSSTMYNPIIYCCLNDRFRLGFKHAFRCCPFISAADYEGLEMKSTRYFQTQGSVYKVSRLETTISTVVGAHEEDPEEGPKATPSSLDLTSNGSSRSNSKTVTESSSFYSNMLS
The target in test [4] is T1, Substance-P receptor (Homo sapiens, UniProt P25103). Briefly: Compound was evaluated for binding affinity against human Tachykinin receptor 1.
T1 sequence (P25103 whole entry): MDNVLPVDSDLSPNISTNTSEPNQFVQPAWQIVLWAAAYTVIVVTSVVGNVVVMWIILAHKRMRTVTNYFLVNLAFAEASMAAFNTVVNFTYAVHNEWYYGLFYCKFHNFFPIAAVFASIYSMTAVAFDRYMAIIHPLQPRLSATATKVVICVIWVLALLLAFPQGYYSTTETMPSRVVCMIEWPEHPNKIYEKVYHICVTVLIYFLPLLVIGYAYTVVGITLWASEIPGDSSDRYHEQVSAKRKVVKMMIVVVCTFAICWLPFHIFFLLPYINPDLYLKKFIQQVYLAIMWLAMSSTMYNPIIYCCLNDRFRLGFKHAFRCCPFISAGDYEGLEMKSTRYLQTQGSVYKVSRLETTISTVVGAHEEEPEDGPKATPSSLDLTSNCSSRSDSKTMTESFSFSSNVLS
In test [5] the target is Substance-P receptor (Rattus norvegicus, UniProt P14600). As to the kind of experiment: Compound was evaluated for its affinity to rat Tachykinin receptor 1.
Sequence of Substance-P receptor (Rattus norvegicus, UniProt P14600) (P14600 whole entry): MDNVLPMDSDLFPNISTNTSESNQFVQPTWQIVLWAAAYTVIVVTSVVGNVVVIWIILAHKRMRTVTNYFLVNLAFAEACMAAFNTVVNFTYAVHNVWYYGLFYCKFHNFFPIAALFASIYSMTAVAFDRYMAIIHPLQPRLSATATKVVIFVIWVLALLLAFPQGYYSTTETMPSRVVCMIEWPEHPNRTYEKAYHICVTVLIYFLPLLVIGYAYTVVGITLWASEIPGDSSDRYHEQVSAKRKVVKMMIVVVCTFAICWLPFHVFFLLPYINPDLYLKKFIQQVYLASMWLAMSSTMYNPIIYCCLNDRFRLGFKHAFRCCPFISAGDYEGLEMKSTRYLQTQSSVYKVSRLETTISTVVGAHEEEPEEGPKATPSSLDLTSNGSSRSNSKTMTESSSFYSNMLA
The target in test [6] is T1, Substance-P receptor. Briefly: Compound was evaluated for its affinity, measured in [3H]SP binding assay on human IM9 lymphoblast cultured cell line.

For the compound `COc1ccccc1[C@H](C)C(=O)N1CC2[C@@H](C1)C(c1ccccc1)(c1ccccc1)CC[S+]2[O-]` (stereo partly specified), the IC50 in test [1] was 20 nM; in test [3], 70 nM; in test [4], 23 nM; in test [5], 10 nM; in test [6] it was 49 nM. In addition, it took a dose of 5 mg/kg to reach the 50% effect level in test [2] (ED50).
